Consider one molecule from patent US11596165B2, “Compositions, their use, and methods for their formation” (Cambridge Glycoscience Ltd, priority 2018, dated 2023).

The structures appear in SMILES notation.

Data set [1] in a line: Solubility of cellobiose when combined with xylo-oligosaccharides. The class given is physicochemical. To be noted: 20-320 mg/mL, vortexed 30 seconds, in the presence of half or the same concentration of xylo-oligosaccharides (e.g., at 80 mg/mL). The procedure: 1. Solutions/suspensions of cellobiose at concentrations from 20-320 mg/mL were vortexed for 30 seconds alone (FIG. 4, panel a), in the presence of half the concentration of xylo-oligosaccharides (FIG. 4, panel b), or the same concentration of xylo-oligosaccharides (FIG. 4, panel c).

Data set [2] is described as follows: Hygroscopicity of oligosaccharide powder at 25° C. in 100% humidity. The format is physicochemical. As to conditions: 5 g, 10 hours at 25° C. in 100% humidity. The text has this: The compositions are to be used in a wide range of foodstuff, cosmetic, or nutraceutical applications, therefore the required hygroscopicity for each application can vary. The aim of this example was to test if hygroscopicity can be adapted by altering the oligosaccharide compositions. • 1. 5 g of oligosaccharide compositions (cellobiose, 4:1 cellobiose:xylo-oligosaccharide, 3:2 cellobiose:xylo-oligosaccharide, 2:3 cellobiose:xylo-oligosaccharide, 1:4 cellobiose:xylo-oligosaccharide, xylo-oligosaccharide) were incubated for 10 hours at 25° C. in 100% humidity. • 2.

`O=C[C@H](O)[C@@H](O)[C@H](O[C@@H]1O[C@H](CO)[C@@H](O)[C@H](O)[C@H]1O)[C@H](O)CO` [cellobiose]: the dissolution of cellobiose result in data set [1] is reported as “enabled more readily at higher concentrations”. Also, the water uptake entry in data set [2] was “effectively resisted water uptake”.
